The text below walks through data of paper PMC12275099, “VX-445 (elexacaftor) inhibits chloride secretion across human bronchial epithelial cells by directly blocking KCa3.1 channels” (PNAS Nexus, 2025).

Where “and” joins values, the source holds several entries; their conditions need not be identical. Identical values can stand only once.

Details of series [1]: method as in earlier work. As to conditions: clinical trial data, converted, cited from earlier work.
For series [2], the target named is T1, KCa3.1 (Homo sapiens, UniProt O15554).
T1 construct: expressed in transfected cells
Nature of the series: Excised inside-out patch-clamp on HEK-KCa3.1. The following applies: for relative remaining current: Fig 3I single experiments. In kind it is biochemical. As for the experimental part:
(§1) Our Isc results are consistent with VX-445 inhibiting KCa3.1 in HBEs. To directly assess this possibility, we initially carried out whole-cell patch-clamp studies on undifferentiated HBEs. […] Upon application of 10 µM VX-445, a majority of this current was inhibited, averaging 87 ± 4% (n = 3, P < 0.005; Fig. 3B). A summary of the current–voltage (I–V) relationship—normalized to cell capacitance—is shown in Fig. 3C, which also includes the whole-cell I–V in the presence of Tram-34. […] To ensure isolation of KCa3.1 currents and to more fully characterize this VX-445-dependent inhibition of KCa3.1, we utilized HEK cells heterologously expressing KCa3.1 (HEK-KCa3.1). Initially, we confirmed our results from HBEs, using whole-cell recordings, as above. […] In seven experiments, this inhibition averaged 58 ± 7% (P < 0.005). […] It is well recognized that drugs are carried to their targets in the blood bound to albumin, which ranges from 3.4 to 5.4%. Thus, we determined whether VX-445 (10 µM) would inhibit KCa3.1 expressed in HEK cells in the presence of 3.4% albumin. In four experiments, VX-445 inhibited an average of 51 ± 17% of the whole-cell KCa3.1 current, which is not different from that observed in the absence of albumin. To confirm the direct effect of VX-445 on KCa3.1, we utilized the excised, inside-out patch-clamp technique. The patch was then exposed to DCEBIO (100 µM) to further activate the channels ([34–37])—analogous to our Isc studies in HBEs. […] In three experiments, VX-445 inhibited an average of 63 ± 6% of the KCa3.1 current. Based on these experiments, we determined the apparent inhibitory constant, Ki for VX-445. For these experiments, patches were excised into saturating Ca^2+ (3 µM) to ensure maximal KCa3.1 activation. These studies were carried out in the absence of DCEBIO to eliminate the possibility that the inhibition observed was due to competition for the DCEBIO-binding site.
HEK cells stably expressing KCa3.1 (IK1, SK4), KCa2.3 (SK3), and KCa2.2 (SK2) were generated and cultured as previously described by us ([37], [66–71]).
HEK cells expressing the channel of interest were plated onto poly-L-lysine-coated glass coverslips 1–2 days prior to patch-clamp analysis. Electrophysiological recordings in the excised, inside-out, and whole-cell patch-clamp configurations were performed as recently described ([14]). For excised patch-clamp recordings, the pipette solution contained (in mM): 140 K-gluconate, 5 KCl, 1 CaCl2, 1 MgCl2, and 10 HEPES. The pH was adjusted to 7.2 with KOH. The bath solution contained (in mM): 145 K-gluconate, 5 KCl, 1.3 MgCl2, 10 HEPES, and 1 EGTA. Sufficient CaCl2 was added to obtain the desired free Ca^2+ concentration at a pH of 7.2 (adjusted with KOH). When recording KCa3.1 channels, ATP (300 µM) was added to the bath to diminish channel rundown ([73]). All recordings were carried out at a voltage of −100 mV, referenced to the extracellular compartment, as is standard. The apparent Ki and Hill coefficient for each CFTR corrector on KCa3.1, KCa2.3, and KCa2.2 were determined during a continuous recording by step-wise addition of increasing concentrations of compound and fitting the resultant relative remaining current to a Hill equation (Prism v. 10.1.0). The zero current level was determined by the addition of a 0 Ca^2+ solution (zero-added Ca^2+ plus 1 mM EGTA) at the end of the experiment. In the case of KCa3.1, TRAM-34, a known inhibitor of KCa3.1 ([45]), was used to confirm expression of the channel. For whole-cell experiments, pipettes contained (in mM): 145 K-gluconate, 10 EGTA, 7.5 CaCl2, 2 MgCl2, 3 mM NaATP, and 10 HEPES. The bath solution contained (in mM): 140 K-gluconate, 5 KCl, 1.0 MgCl2, 10 HEPES, and 2 CaCl2. Current–voltage relationships were determined by stepping from a holding potential of −80 mV to +80 mV in 20 mV increments for 400 ms. […]
On the technique in general: The patch-clamp technique gives a direct electrical read-out from membranes.

Series [3] has as its target T2, endogenous KCa3.1 in WT CFTR-expressing HBEs (Homo sapiens, UniProt O15554).
T2 construct: endogenous in cells; host or cells: undifferentiated primary human bronchial epithelial cells (WT CFTR donors)
Nature of the series: Whole-cell patch-clamp on undifferentiated HBEs. In kind it is cell-based. As to conditions: VX-445 10 µM; 500 nM free Ca2+ in pipette; n = 3; read-out: inhibition of whole-cell outward potassium current. As for the experimental part: as §1
Primary human bronchial epithelial cells (HBEs) were collected from unused or discarded samples from the Center for Organ Recovery and Education via the University of Pittsburgh Pulmonary, Allergy, Critical Care, and Sleep Medicine Lung Biobank and Repository. All experimental procedures involving the use of HBEs were approved by the institutional review board (IRB STUDY19090084) and the Committee for Oversight of Research and Clinical Training Involving Decedents (CORID number 451) at the University of Pittsburgh. At all times, authors were blind to the identity of HBE donors. HBEs were cultured using the Vertex method ([72]). Studies were carried out on WT CFTR HBEs from 11 ([13]) donors and homozygous F508del/F508del CFTR HBEs from five ([5]) separate donors. […]

For the molecule `Cc1nn(C)cc1S(=O)(=O)NC(=O)c1ccc(-n2ccc(OCC(C)(C)C(F)(F)F)n2)nc1N1C[C@@H](C)CC1(C)C` [VX-445, elexacaftor], the “minimal (Cmin) plasma concentration” value in series [1] was 6 to 9 µM. Besides, the Cmax in series [1] (read-out: maximal (Cmax) plasma concentration) was ~15 µM. For the same molecule, the Hill coefficient – broadly, the slope factor of the fitted curve – in series [2] (3 µM free Ca2+, absence of DCEBIO) is 1.2. Further, the Ki in series [2] (3 µM free Ca2+, absence of DCEBIO, Hill fit, n = 4, read-out: apparent Ki) was 8 ± 2 µM. Further, the inhibition (in general, the change of the read-out against control, counted positive when it falls) at 10 µM in series [2] (10 µM compound after DCEBIO 100 µM, 1 µM free Ca2+, three experiments, read-out: inhibition of KCa3.1 current in excised patch) came to 63 ± 6%; in series [3], 87 ± 4%. In addition, the “selectivity among KCNN gene family members” value in series [2] (KCa3.1 versus KCa2.2 and KCa2.3) is on record as “exhibits selectivity for KCa3.1 over KCa2.x channels”. The relative remaining current is 100 in series [2] ([VX-445] 0.1); 86 and 95 and 100 and 83 in series [2] ([VX-445] 1); 68 and 80 and 93 and 62 in series [2] ([VX-445] 3).
